Source: the supplement of paper PMC10307832

Key:
[1] = compound: Cn1c(=O)n(-c2ccc(C(C)(C)C#N)cc2)c2c3cc(-c4cnc5ccccc5c4)ccc3ncc21 [Dactolisib] + Cc1nc(Nc2ncc(C(=O)Nc3c(C)cccc3Cl)s2)cc(N2CCN(CCO)CC2)n1 [Dasatinib] (partner 0.075 µM); assay: relative viability (nuclei count vs DMSO), 5 days (fraction); higher = more cells survive
Outline: (§1)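 Nuclei were stained with Hoechst during a one-step fixation (final 0.05% Triton X-100, 1% formaldehyde, 1 ug/ml Hoechst) carried out 5 days after dosing, then counted on 4× images. The cells, lung cancer lines in 1536-well plates, had been dosed by pin tool the day after seeding with one drug alone or a fixed anchor-drug dose plus five library-drug doses (not always all listed) in √10 steps. Relative viability is the nuclei count in treated wells divided by that in vehicle wells, and each value is the median of duplicate plates.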

[2] = compound: C1CCC(CC1)N(CCNCCC2=C3C(=C(C=C2)O)NC(=O)CO3)C(=O)CCNCCC4=CC(=C(C=C4)Cl)Cl [AZ505] + CC(=O)Nc1cccc(-n2c(=O)n(C3CC3)c(=O)c3c(Nc4ccc(I)cc4F)n(C)c(=O)c(C)c32)c1 [Trametinib] (partner 0.02 µM); assay: as above
Outline: as §1

| Cell Line | relative viability ([1]; first compound 0.002 µM) | relative viability ([1]; first compound 0.006325 µM) | relative viability ([1]; first compound 0.02 µM) | relative viability ([1]; first compound 0.06325 µM) | relative viability ([1]; first compound 0.2 µM) | relative viability ([2]; first compound 0.08 µM) | relative viability ([2]; first compound 0.253 µM) | relative viability ([2]; first compound 0.8 µM) | relative viability ([2]; first compound 2.53 µM) | relative viability ([2]; first compound 8 µM) |
| --- | --- | --- | --- | --- | --- | --- | --- | --- | --- | --- |
| NCI-H1975 | 0.35 | 0.305 | 0.246 | 0.167 | 0.135 | 0.351 | 0.315 | 0.377 | 0.356 | 0.332 |
| NCI-H1993 | 0.553 | 0.413 | 0.498 | 0.505 | 0.52 | 0.463 | 0.533 | 0.45 | 0.575 | 0.469 |
| RERF-LC-KJ | 0.99 | 0.747 | 0.69 | 0.347 | 0.311 | 0.863 | 0.958 | 0.797 | 0.878 | 0.71 |
| NCI-H23 | 0.852 | 0.682 | 0.679 | 0.325 | 0.302 | 0.246 | 0.414 | 0.427 | 0.442 | 0.347 |
| HCC-366 | 0.598 | 0.565 | 0.597 | 0.341 | 0.136 | 0.288 | 0.331 | 0.281 | 0.289 | 0.332 |
| EMC-BAC-2 | 0.337 | 0.325 | 0.342 | 0.209 | 0.18 | 0.83 | – | 0.876 | 0.82 | 0.902 |
| NCI-H2405 | 0.224 | 0.238 | 0.207 | 0.213 | 0.187 | 0.487 | – | 0.615 | 0.586 | 0.603 |
| NCI-H358 | 0.162 | 0.157 | 0.191 | 0.0796 | 0.0694 | 0.113 | 0.136 | 0.112 | 0.119 | 0.13 |
| NCI-H1944 | 0.22 | 0.2 | 0.212 | 0.165 | 0.148 | 0.377 | 0.391 | 0.414 | 0.444 | 0.386 |
| NCI-H1648 | – | – | – | – | – | – | 0.463 | 0.528 | 0.576 | 0.497 |
| EPLC-272H | 0.359 | 0.254 | 0.318 | 0.207 | 0.233 | 0.308 | 0.292 | 0.307 | 0.277 | 0.269 |
| NCI-H1915 | 0.357 | 0.332 | 0.308 | 0.241 | 0.175 | 0.294 | 0.303 | 0.236 | 0.266 | 0.301 |
| NCI-H596 | 0.629 | 0.539 | 0.528 | 0.384 | 0.319 | 0.721 | – | 0.593 | 0.648 | 0.674 |
| NCI-H322M | 0.267 | 0.256 | 0.243 | 0.234 | 0.235 | 0.501 | – | 0.521 | 0.491 | 0.486 |
| NCI-H2228 | 0.629 | 0.441 | 0.339 | 0.162 | 0.141 | 0.311 | 0.374 | 0.441 | 0.49 | 0.429 |
| NCI-H2342 | 0.298 | 0.294 | 0.348 | 0.31 | 0.284 | 0.668 | 0.789 | 1.01 | 0.752 | 1.01 |
| NCI-H647 | 0.164 | 0.191 | 0.143 | 0.0579 | 0.068 | 0.478 | 0.509 | 0.404 | 0.379 | 0.467 |

| Cell Line | relative viability ([1]; first compound 0.002 µM) | relative viability ([1]; first compound 0.006325 µM) | relative viability ([1]; first compound 0.02 µM) | relative viability ([1]; first compound 0.06325 µM) | relative viability ([1]; first compound 0.2 µM) | relative viability ([2]; first compound 0.08 µM) | relative viability ([2]; first compound 0.253 µM) | relative viability ([2]; first compound 0.8 µM) | relative viability ([2]; first compound 2.53 µM) | relative viability ([2]; first compound 8 µM) |
| --- | --- | --- | --- | --- | --- | --- | --- | --- | --- | --- |
| SK-MES-1 | 0.433 | 0.375 | 0.307 | 0.222 | 0.147 | 0.513 | 0.531 | 0.532 | 0.508 | 0.584 |
| NCI-H2170 | 0.644 | 0.538 | 0.652 | 0.486 | 0.289 | 0.84 | 0.931 | 0.883 | 0.893 | 0.942 |
| NCI-H2085 | 0.179 | 0.249 | 0.229 | 0.169 | 0.209 | 0.49 | 0.477 | 0.52 | 0.571 | 0.591 |
| NCI-H727 | 0.384 | 0.445 | 0.461 | 0.3 | 0.257 | 0.418 | 0.411 | 0.365 | 0.391 | 0.358 |
| NCI-H441 | 0.729 | 0.477 | 0.527 | 0.357 | 0.205 | 0.413 | 0.385 | 0.536 | 0.568 | 0.465 |
| LOU-NH91 | 0.533 | 0.591 | 0.504 | 0.438 | 0.351 | 0.772 | 0.77 | 0.76 | 0.798 | 0.765 |
| NCI-H3122 | 0.702 | 0.818 | 0.752 | 0.675 | 0.225 | 0.211 | 0.258 | 0.215 | 0.27 | 0.267 |
| NCI-H460 | 0.568 | 0.503 | 0.448 | 0.185 | 0.112 | 0.218 | 0.174 | 0.065 | 0.126 | 0.0757 |
| NCI-H650 | 0.539 | 0.432 | 0.449 | 0.314 | 0.305 | 0.98 | 0.841 | 0.924 | 0.893 | 1.15 |
| NCI-H661 | 0.562 | 0.744 | 0.483 | 0.296 | 0.286 | 0.603 | 0.596 | 0.537 | 0.577 | 0.541 |
| NCI-H1793 | 0.388 | 0.312 | 0.253 | 0.16 | 0.134 | 0.382 | 0.372 | 0.416 | 0.428 | 0.434 |
| NCI-H1734 | 0.499 | 0.362 | 0.407 | 0.2 | 0.162 | 0.65 | 0.647 | 0.652 | 0.675 | 0.691 |
| LXF-289 | 0.22 | 0.21 | 0.235 | 0.221 | 0.121 | 0.632 | 0.629 | 0.66 | 0.678 | 0.665 |
| H3255 | 0.489 | 0.387 | 0.357 | 0.397 | 0.28 | – | 0.604 | 0.543 | 0.578 | 0.611 |
| 201T | 0.601 | 0.538 | 0.524 | 0.554 | 0.346 | 0.688 | 0.716 | 0.722 | 0.705 | 0.711 |
| NCI-H2126 | 0.599 | 0.589 | 0.504 | 0.385 | 0.279 | 0.523 | 0.592 | 0.523 | 0.629 | 0.574 |
